Test: Aqueous stability of roxithromycin (% Purity by HPLC)
Assay type: physicochemical
Details: for Roxithromycin % Purity By Area Normalization: 2 mg/mL
Description: Roxithromycin stability was determined for 2 mg/mL [roxithromycin] at 5, 25, and 40° C. as a function of pH and buffer (citrate) concentration. Roxithromycin %Purity was determined by area normalization using a reverse-phase HPLC method that meets the requirements of the EP Monograph. Solution pH values were determined per USP <791>.

stability of aqueous formulation (2 mg/mL roxithromycin, 20 mM citrate buffer at pH 6): satisfactory | Roxithromycin % Purity By Area Normalization (25° C., citrate pH 4, 20 mM, 0 mo): 81% | Roxithromycin % Purity By Area Normalization (25° C., citrate pH 4, 20 mM, 0.3 mo): 74% | Roxithromycin % Purity By Area Normalization (25° C., citrate pH 4, 20 mM, 0.5 mo): 70% | Roxithromycin % Purity By Area Normalization (25° C., citrate pH 4, 20 mM, 0.9 mo): 65% | Roxithromycin % Purity By Area Normalization (25° C., citrate pH 4, 20 mM, 1.5 mo): 56% | Roxithromycin % Purity By Area Normalization (25° C., citrate pH 4, 20 mM, 2.6 mo): 48% | Roxithromycin % Purity By Area Normalization (25° C., citrate pH 4, 20 mM, 5.3 mo): 28% | Roxithromycin % Purity By Area Normalization (25° C., citrate pH 4, 20 mM, 7.3 mo): 15% | Roxithromycin % Purity By Area Normalization (25° C., citrate pH 4, 50 mM, 0 mo): 78% | Roxithromycin % Purity By Area Normalization (25° C., citrate pH 4, 50 mM, 0.3 mo): 71% | Roxithromycin % Purity By Area Normalization (25° C., citrate pH 4, 50 mM, 0.5 mo): 65% | Roxithromycin % Purity By Area Normalization (25° C., citrate pH 4, 50 mM, 0.9 mo): 59% | Roxithromycin % Purity By Area Normalization (25° C., citrate pH 4, 50 mM, 1.5 mo): 47% | Roxithromycin % Purity By Area Normalization (25° C., citrate pH 4, 50 mM, 2.6 mo): 33% | Roxithromycin % Purity By Area Normalization (25° C., citrate pH 4, 50 mM, 5.3 mo): 15% | Roxithromycin % Purity By Area Normalization (25° C., citrate pH 4, 50 mM, 7.3 mo): 6% | Roxithromycin % Purity By Area Normalization (25° C., citrate pH 5, 20 mM, 0 mo): 96% | Roxithromycin % Purity By Area Normalization (25° C., citrate pH 5, 20 mM, 0.3 mo): 88% | Roxithromycin % Purity By Area Normalization (25° C., citrate pH 5, 20 mM, 0.5 mo): 84% | Roxithromycin % Purity By Area Normalization (25° C., citrate pH 5, 20 mM, 0.9 mo): 80% | Roxithromycin % Purity By Area Normalization (25° C., citrate pH 5, 20 mM, 1.5 mo): 77% | Roxithromycin % Purity By Area Normalization (25° C., citrate pH 5, 20 mM, 2.6 mo): 75% | Roxithromycin % Purity By Area Normalization (25° C., citrate pH 5, 20 mM, 5.3 mo): 75% | Roxithromycin % Purity By Area Normalization (25° C., citrate pH 5, 20 mM, 7.3 mo): 71% | Roxithromycin % Purity By Area Normalization (25° C., citrate pH 5, 50 mM, 0 mo): 92% | Roxithromycin % Purity By Area Normalization (25° C., citrate pH 5, 50 mM, 0.3 mo): 82% | Roxithromycin % Purity By Area Normalization (25° C., citrate pH 5, 50 mM, 0.5 mo): 78% | Roxithromycin % Purity By Area Normalization (25° C., citrate pH 5, 50 mM, 0.9 mo): 77% | Roxithromycin % Purity By Area Normalization (25° C., citrate pH 5, 50 mM, 1.5 mo): 74% | Roxithromycin % Purity By Area Normalization (25° C., citrate pH 5, 50 mM, 2.6 mo): 71% | Roxithromycin % Purity By Area Normalization (25° C., citrate pH 5, 50 mM, 5.3 mo): 67% | Roxithromycin % Purity By Area Normalization (25° C., citrate pH 5, 50 mM, 7.3 mo): 59% | Roxithromycin % Purity By Area Normalization (25° C., citrate pH 5, 100 mM, 0 mo): 90% | Roxithromycin % Purity By Area Normalization (25° C., citrate pH 5, 100 mM, 0.3 mo): 79% | Roxithromycin % Purity By Area Normalization (25° C., citrate pH 5, 100 mM, 0.5 mo): 76% | Roxithromycin % Purity By Area Normalization (25° C., citrate pH 6, 20 mM, 0 mo): 98% | Roxithromycin % Purity By Area Normalization (25° C., citrate pH 6, 20 mM, 0.3 mo): 97% | Roxithromycin % Purity By Area Normalization (25° C., citrate pH 6, 20 mM, 0.5 mo): 96% | Roxithromycin % Purity By Area Normalization (25° C., citrate pH 6, 20 mM, 0.9 mo): 96% | Roxithromycin % Purity By Area Normalization (25° C., citrate pH 6, 20 mM, 1.5 mo): 94% | Roxithromycin % Purity By Area Normalization (25° C., citrate pH 6, 20 mM, 2.6 mo): 92% | Roxithromycin % Purity By Area Normalization (25° C., citrate pH 6, 20 mM, 5.3 mo): 90% | Roxithromycin % Purity By Area Normalization (25° C., citrate pH 6, 20 mM, 7.3 mo): 87% | Roxithromycin % Purity By Area Normalization (25° C., citrate pH 6, 50 mM, 0 mo): 98% | Roxithromycin % Purity By Area Normalization (25° C., citrate pH 6, 50 mM, 0.3 mo): 96% | Roxithromycin % Purity By Area Normalization (25° C., citrate pH 6, 50 mM, 0.5 mo): 94% | Roxithromycin % Purity By Area Normalization (25° C., citrate pH 6, 50 mM, 0.9 mo): 92% | Roxithromycin % Purity By Area Normalization (25° C., citrate pH 6, 50 mM, 1.5 mo): 89% | Roxithromycin % Purity By Area Normalization (25° C., citrate pH 6, 50 mM, 2.6 mo): 85% | Roxithromycin % Purity By Area Normalization (25° C., citrate pH 6, 50 mM, 5.3 mo): 81% | Roxithromycin % Purity By Area Normalization (25° C., citrate pH 6, 50 mM, 7.3 mo): 78% | Roxithromycin % Purity By Area Normalization (40° C., citrate pH 4, 20 mM, 0 mo): 81% | Roxithromycin % Purity By Area Normalization (40° C., citrate pH 4, 20 mM, 0.3 mo): 27% | Roxithromycin % Purity By Area Normalization (40° C., citrate pH 4, 20 mM, 0.5 mo): 10% | Roxithromycin % Purity By Area Normalization (40° C., citrate pH 4, 20 mM, 0.9 mo): 2% | Roxithromycin % Purity By Area Normalization (40° C., citrate pH 4, 50 mM, 0 mo): 78% | Roxithromycin % Purity By Area Normalization (40° C., citrate pH 4, 50 mM, 0.3 mo): 15% | Roxithromycin % Purity By Area Normalization (40° C., citrate pH 4, 50 mM, 0.5 mo): 3% | Roxithromycin % Purity By Area Normalization (40° C., citrate pH 4, 50 mM, 0.9 mo): 1%
SMILES: CC[C@H]1OC(=O)[C@H](C)[C@@H](O[C@H]2C[C@@](C)(OC)[C@@H](O)[C@H](C)O2)[C@H](C)[C@@H](O[C@@H]2O[C@H](C)C[C@H](N(C)C)[C@H]2O)[C@](C)(O)C[C@@H](C)/C(=N\OCOCCOC)[C@H](C)[C@@H](O)[C@]1(C)O [roxithromycin]
